# Read-outs that look alike come from different tables or passages of the source.
# Columns and labels:
# NCI-H460 cells = assay: cells; assay type: cell-based, Human; conditions: for IC50: Homo sapiens; for cytotoxicity / activity for H460 cells, in words: comparison
# Description: Human non-small cell lung cancer cells (NCI-H460) were purchased from the American Type Culture Collection (Manassas, Va.). NCI-H460 cells were cultured in RPMI 1640 medium supplemented with 10% bovine fetal serum (FBS), 2 mM L-glutamine and 100-units/ml penicillin/streptomycin. All experiments with NCI-H460 cells were performed in medium enriched with 1% FBS serum, 2 mM L-glutamine and 100-units/ml penicillin/streptomycin. 1% FBS was used due to existing concerns about digitoxin binding to serum proteins.
# Cells were seeded overnight in 96 well plates at a concentration of 1×10^4 cells/well, and then treated for 48 h with a log10 scale dilution series of the glycosylated CS compounds (e.g., digitoxin or D6-MA) dissolved in sterile filtered DMSO. Subsequently, 10 μl of 5 mg/ml MTT reagent was added to each well and then incubated for 4 h at 37° C. Isopropanol acidified with 0.04 N HCl was used to dissolve converted dye. Absorbance at 570 nm was measured using an Automated Microplate Reader ELx800 (BioTek, Winooski, Vt.). Each experiment was conducted 4 times with 4 replicate wells per concentration.
# All results are presented as mean±standard deviation. For cell viability, ATPase activity and apoptosis assays, dose-response curves and concentrations that caused 50% effect (i.e. IC50) were calculated for the prepared compounds listed in Tables 1-3 in all the cell lines tested using non-linear regression analysis in GraphPad Prism 5.0 (San Diego, Calif.). Two-way analysis of variance (ANOVA) and unpaired two-tailed Student's t-test with α=0.05 were performed to compare the effect of compounds and administered dose on cell viability, apoptosis and quantified protein expression data. Post-hoc Tukey-Kramer HSD tests were conducted on significant ANOVA results. Results were considered significant when p≦0.05.
# α3β1 Na+/K+ ATPase = α3β1 Na+/K+ ATPase (Homo sapiens, UniProt P13637); assay: Na+/K+ ATPase pump binding, α3β1 isoform (radioactive displacement assay)
# Description: (§1) α1/2/3-Na^+/K^+ ATPase pump binding data was assessed for compounds of Table 1.
# (§2) Further, from the results, a strong correlation between cancer cell cytotoxicity and α1/3-Na^+/K^+ ATPase pump binding selectivity was observed (see: α-L-amiceto-mono-, di- and tri-saccharides; Scheme 1). In addition, it was observed that mono-saccharides have improved activity and α1/2/3-isoform selectivity. […] The Na^+/K^+ ATPase binding data also correlates with the cytotoxicity data, which can be seen in the binding data of compounds 1.5-1.7 to all three isomers (α1β1/α2β1/α3β1), which decreases proportionally the MTT data (Table 1).
# α2β1 Na+/K+ ATPase = α2β1 Na+/K+ ATPase (Homo sapiens, UniProt P50993); assay: Na+/K+ ATPase pump binding, α2β1 isoform (radioactive displacement assay)
# Description: as §1, §2
# α1β1 Na+/K+ ATPase = α1β1 Na+/K+ ATPase (Homo sapiens, UniProt P05023); assay: Na+/K+ ATPase pump binding, α1β1 isoform (radioactive displacement assay)
# Description: as §1, §2
# HCMV = assay: Anti-CMV activity assay, inhibition of HCMV replication in infected HFFs; assay type: cell-based, human Cytomegalovirus (HCMV); conditions: anti-HCMV activity in infected HFFs; read-out: EC50
# Description: It has been observed that the infection of human foreskin fibroblasts (HFF) cells with HCMV causes an up regulation of the α3-isoform of the Na^+/K^+-Pump. Therefore the inhibition of HCMV replication by the compounds described herein was tested using procedure described by Cai, H. et al., in Med. Chem. Lett. 2014, 5, 395-399, which is incorporated by reference in its entirety. Generally, inhibition of Towne HCMV: pp28-luciferase activity was measured in cell lysates of HCMV-infected HFFs collected at 72 h post infection (hpi). Virus DNA yield in supernatants of HCMV-infected cells collected at 96 hpi was measured by real-time PCR. Plaque reduction assay performed at 8 days postinfection. Data represent mean values (±SD) of triplicate determinations from three independent experiments.
# Inhibition of TB40 HCMV: HFFs were infected with HCMV-TB40 strain at MOI of 1 pfu/cell and treated with compounds listed in Tables 1-3 for 3 days.
# The glycosylated cardiotonic steroid compounds were tested for their anti-cytomegalovirus (CMV) activity. Specifically, the compounds were tested for the ability to inhibit HCMV replication. For each compound, the anti-HCMV activity in infected HFFs was expressed as EC50, whereas cytotoxicity in noninfected HFFs was expressed as CC50. Selectivity index (SI), defined as CC50/EC50, was calculated for each compound.
# [1] = NCI-H460, Table 5, H460 cells, compounds of Table 2, read-out: IC50
# [2] = NCI-H460, Table 6, H460 cells, compounds of Table 3, read-out: IC50
# [3] = NCI-H460, 48 h, read-out: Anticancer MTT IC50
Molecule,IC50 (NCI-H460 cells; [1]),"cytotoxicity / activity for H460 cells, in words (NCI-H460 cells)",IC50 (NCI-H460 cells; [2]),also measured
"CC1O[C@@H](O[C@H]2CCC3(C)C(CC[C@@H]4C3CCC3(C)[C@@H](C5=CC(=O)OC5)CC[C@]43O)C2)C(O)C(O)[C@H]1N (stereo in doubt) [Compound 2.1, digitoxigenin α-L-4-amino-rhamnopyranoside]",5.1 nM,improved cytotoxicity,–,–
"CC1O[C@@H](OC2C(O)[C@H](O[C@H]3CCC4(C)C(CC[C@@H]5C4CCC4(C)[C@@H](C6=CC(=O)OC6)CC[C@]54O)C3)OC(C)[C@@H]2O)C(O)C(O)[C@H]1O (stereo in doubt) [Compound 2.3, digitoxigenin α-L-rhamnopyranosyl-(1 → 3)-α-L-rhamnopyranoside]",45.5 nM,does not significantly reduce activity,–,–
"CC1O[C@H](OC2C(O)[C@H](O[C@H]3CCC4(C)C(CC[C@@H]5C4CCC4(C)[C@@H](C6=CC(=O)OC6)CC[C@]54O)C3)OC(C)[C@@H]2O)C(O)C(O)[C@@H]1O (stereo in doubt) [Compound 2.4, digitoxigenin α-D-rhamnopyranosyl-(1 → 3)-α-L-rhamnopyranoside]",332 nM,–,–,–
"CC1O[C@H](OC2C(O)[C@H](OC3C(O)[C@H](O[C@H]4CCC5(C)C(CC[C@@H]6C5CCC5(C)[C@@H](C7=CC(=O)OC7)CC[C@]65O)C4)OC(C)[C@@H]3O)OC(C)[C@@H]2O)C(O)C(O)[C@@H]1O (stereo in doubt) [Compound 2.9, digitoxigenin α-D-rhamnopyranosyl-(1 → 3)-α-L-rhamnopyranosyl-(1 → 3)-α-L-rhamnopyranoside]",86 nM,–,–,–
"CC1O[C@@H](OC2C(O)[C@H](OC3C(O)[C@H](O[C@H]4CCC5(C)C(CC[C@@H]6C5CCC5(C)[C@@H](C7=CC(=O)OC7)CC[C@]65O)C4)OC(C)[C@@H]3O)OC(C)[C@@H]2O)C(O)C(O)[C@H]1O (stereo in doubt) [Compound 2.10, digitoxigenin α-L-rhamnopyranosyl-(1 → 3)-α-L-rhamnopyranosyl-(1 → 3)-α-L-rhamnopyranoside]",50.6 nM,–,–,–
"C[C@@H]1O[C@@H](O[C@H]2CC[C@@]3(C)[C@H](CC[C@@H]4[C@@H]3C[C@@H](O)[C@]3(C)[C@@H](C5=CC(=O)OC5)CC[C@]43O)C2)CC[C@H]1O (stereo in doubt) [Compound 3.3, digoxigenin α-L-amecitopyranoside]",–,more active than the diastereomeric α-D-sugars,54 nM,–
"C[C@@H]1O[C@@H](O[C@H]2CC[C@@]3(C)[C@H](CC[C@@H]4[C@@H]3C[C@@H](O)[C@]3(C)[C@@H](C5=CC(=O)OC5)CC[C@]43O)C2)[C@H](O)[C@H](O)[C@H]1O (stereo in doubt) [Compound 3.7, digoxigenin α-L-rhamnopyranoside]",–,more active than the diastereomeric α-D-sugars,19 nM,–
CC1OC(OC2C(C)OC(OC3C(C)OC(OC4CCC5(C)C(CCC6C5CCC5(C)C(C7=CC(=O)OC7)CCC65O)C4)C(O)C3O)C(O)C2O)C(O)C(O)C1O (stereo not shown) [Compound 1.4],–,–,–,Kd (α3β1 Na+/K+ ATPase): 345 nM; Kd (α2β1 Na+/K+ ATPase): 164 nM; Kd (α1β1 Na+/K+ ATPase): 393 nM; IC50 (NCI-H460 cells; [3]): 1350 nM
CC1OC(OC2CCC(OC3CCC4(C)C(CCC5C4CCC4(C)C(C6=CC(=O)OC6)CCC54O)C3)OC2C)CCC1O (stereo not shown) [Compound 1.6],–,–,–,Kd (α3β1 Na+/K+ ATPase): 186 nM; Kd (α2β1 Na+/K+ ATPase): 156 nM; Kd (α1β1 Na+/K+ ATPase): 223 nM; IC50 (NCI-H460 cells; [3]): 510 nM
"CC1O[C@@H](O[C@H]2CCC3(C)C(CC[C@@H]4C3CCC3(C)[C@@H](C5=CC(=O)OC5)CC[C@]43O)C2)CC[C@H]1N (stereo partly drawn) [Compound 2.2, digitoxigenin α-L-4-amino-amecitopyranoside]",3.1 nM,improved cytotoxicity,–,–
"CC1OC(O[C@H]2CCC3(C)C(CCC4C3CCC3(C)[C@@H](C5=CC(=O)OC5)CC[C@]43O)C2)C(O)C(OC2CC[C@@H](O)C(C)O2)[C@H]1O (stereo partly drawn) [Compound 2.5, [2,3-dihydro-4-hydroxy-α-L-Amip-(1→3)-2,4-dihydroxy-α-L-Rhap]-Dig]",389 nM,–,–,–
"CC1OC(O[C@H]2CCC3(C)C(CCC4C3CCC3(C)[C@@H](C5=CC(=O)OC5)CC[C@]43O)C2)C(O)C(OC2CC[C@H](O)C(C)O2)[C@H]1O (stereo partly drawn) [Compound 2.6, [2,3-dihydro-4-hydroxy-α-D-Amip-(1→3)-2,4-dihydroxy-α-L-Rhap]-Dig]",651 nM,–,–,–
"CC1O[C@H](O[C@H]2C(C)O[C@@H](O[C@H]3CCC4(C)C(CC[C@@H]5C4CCC4(C)[C@@H](C6=CC(=O)OC6)CC[C@]54O)C3)C(O)C2O)C(O)C(O)[C@@H]1O (stereo partly drawn) [Compound 2.7, digitoxigenin α-D-rhamnopyranosyl-(1 → 4)-α-L-rhamnopyranoside]",70 nM,much greater activity,–,–
C[C@H]1O[C@H](O[C@H]2CC[C@@]3(C)[C@H](CC[C@@H]4[C@@H]3C[C@@H](O)[C@]3(C)[C@@H](C5=CC(=O)OC5)CC[C@]43O)C2)CC[C@@H]1O [Compound 3.1],–,–,253 nM,–
C[C@H]1O[C@H](O[C@H]2CC[C@@]3(C)[C@H](CC[C@@H]4[C@@H]3C[C@@H](O)[C@]3(C)[C@@H](C5=CC(=O)OC5)CC[C@]43O)C2)[C@@H](O)[C@@H](O)[C@@H]1O [Compound 3.2],–,–,486 nM,–
CC(=O)O[C@@H]1C[C@H]2[C@@H](CC[C@@H]3C[C@@H](O[C@H]4CC[C@@H](O)[C@H](C)O4)CC[C@@]32C)[C@@]2(O)CC[C@H](C3=CC(=O)OC3)[C@@]12C [Compound 3.4],–,–,3440 nM,–
C[C@@H]1O[C@@H](O[C@H]2CC[C@@]3(C)[C@H](CC[C@@H]4[C@@H]3C[C@@H](OC(=O)C(C)(C)C)[C@]3(C)[C@@H](C5=CC(=O)OC5)CC[C@]43O)C2)CC[C@H]1O [Compound 3.5],–,greatly reduced activity,≥ 50000 nM,–
C[C@@H]1O[C@@H](O[C@H]2CC[C@@]3(C)[C@H](CC[C@@H]4[C@@H]3C[C@@H](O[Si](C)(C)C(C)(C)C)[C@]3(C)[C@@H](C5=CC(=O)OC5)CC[C@]43O)C2)CC[C@H]1O [Compound 3.6],–,–,29700 nM,–
CC(=O)O[C@@H]1C[C@H]2[C@@H](CC[C@@H]3C[C@@H](O[C@@H]4O[C@@H](C)[C@H](O)[C@@H](O)[C@H]4O)CC[C@@]32C)[C@@]2(O)CC[C@H](C3=CC(=O)OC3)[C@@]12C [Compound 3.8],–,–,5980 nM,–
C[C@@H]1O[C@@H](O[C@H]2CC[C@@]3(C)[C@H](CC[C@@H]4[C@@H]3C[C@@H](OC(=O)CCl)[C@]3(C)[C@@H](C5=CC(=O)OC5)CC[C@]43O)C2)[C@H](O)[C@H](O)[C@H]1O [Compound 3.9],–,–,105 nM,–
C[C@@H]1O[C@@H](O[C@H]2CC[C@@]3(C)[C@H](CC[C@@H]4[C@@H]3C[C@@H](OC(=O)C(C)(C)C)[C@]3(C)[C@@H](C5=CC(=O)OC5)CC[C@]43O)C2)[C@H](O)[C@H](O)[C@H]1O [Compound 3.10],–,greatly reduced activity,≥ 50000 nM,–
C[C@@H]1O[C@@H](O[C@H]2CC[C@@]3(C)[C@H](CC[C@@H]4[C@@H]3C[C@@H](O[Si](C)(C)C(C)(C)C)[C@]3(C)[C@@H](C5=CC(=O)OC5)CC[C@]43O)C2)[C@H](O)[C@H](O)[C@H]1O [Compound 3.11],–,–,2250 nM,–
α-D-Mannose,–,–,–,EC50 (HCMV): 7.31 ± 0.12 nM
